# From patent US9642831B2, “Substituted chromanes and method of use” (AbbVie S.á.r.l., priority 2014, dated 2017)
# Biological target: F508delCFTR (Homo sapiens, UniProt P13569, DEL508-508)
# Test: Cell Surface Expression-Horse Radish Peroxidase (CSE-HRP) assay
# Assay type: cell-based
# Parameters: expressed in transfected cells; host or cells: CFBE41o- human lung derived epithelial cell line, doxycycline-inducible
# Conditions: CFBE4lo-F508delCFTR-HRP cells; for EC50: 18-24 hours at 33° C., 8-point curve, highest concentration 20 μM, luminescence readout; for Emax: maximum % activity at any tested concentration, normalized to on-plate positive control (3 μM Example 1)
# Text: Cell Surface Expression-Horse Radish Peroxidase (CSE-HRP) Assay:
# A cellular assay for measuring the F508delCFTR cell surface expression after correction with test compounds was developed in human lung derived epithelial cell line (CFBE4lo-) (Veit G et al, (2012) Mol Biol Cell. 23(21): 4188-4202). This was achieved by expressing the F508delCFTR mutation along with a horseradish peroxidase (HRP) in the fourth exofacial loop and then measuring the HRP activity using luminescence readout from these cells, CFBE4lo-F508delCFTR-HRP, that were incubated overnight with the test corrector compounds. Briefly, for this primary assay, the CFBE4lo-F508delCFTR-HRP cells were plated in 384-well plates (Greiner Bio-one; Cat 781080) at 4,000 cells/well along with 0.5 μg/mL doxycycline to induce the F508delCFTR-HRP expression and further incubated at 37° C., 5% CO2 for 72 hours. The test compounds were then added at the required concentrations and further incubated for 18-24 hours at 33° C. The highest concentration tested was 20 μM with an 8-point concentration response curve using a 3-fold dilution. Three replicate plates were run to determine one EC50. All plates contained negative controls (dimethyl sulfoxide, DMSO) and positive controls (3 μM of 3-[(2R,4R)-4-({[1-(2,2-difluoro-1,3-benzodioxol-5-yl)cyclopropyl]carbonyl}amino)-7-methoxy-3,4-dihydro-2H-chromen-2-yl]benzoic acid) as well as on-plate concentration response of the positive control. Post incubation, the plates were washed 5× times with Dulbecco's phosphate buffered saline (DPBS), followed by the addition of the HRP substrate, luminol (50 μL), and measuring the HRP activity using luminescence readout on EnVision® Multilabel Plate Reader (Perkin Elmer; product number 2104-0010). The raw counts from the experiment are analyzed using Accelrys® Assay Explorer v3.3.
# Z′ greater than 0.5 was used as passing quality control criteria for the plates.
# The Z′ is defined as: 1−[3*SDPositive Control+3*SDNegative Control/Absolute(MeanPositive Control−MeanNegative Control)] wherein “SD” is standard deviation.
# The % activity measured at each of the 8 test concentrations of the test compound was normalized to the on-plate positive control using the following formula: % activity=[(test compound response−DMSO response)/(positive control response−DMSO response)]*100
# The maximum % activity achieved for the test compound at any tested concentration is presented in Table 1 along with the EC50 calculated using the following general sigmoidal curve with variable Hill slope equation (described as Model 42 in the Accelrys® Assay Explorer v3.3 software): y=(a−d)/(1+(x/c)^b)+d
# General sigmoidal curve with concentration, response, top, bottom, EC50 and Hill slope.
# This model describes a sigmoidal curve with an adjustable baseline, a. The equation can be used to fit curves where response is either increasing or decreasing with respect to the independent variable, “x”.
# “x” is a concentration of drug under test.
# “a” is the maximum response, and “d” is the minimum response
# “c” is the inflection point (EC50) for the curve. That is, “y” is halfway between the lower and upper asymptotes when x=c.
# “b” is the slope-factor or Hill coefficient. The sign of b is positive when the response increases with increasing dose and is negative when the response decreases with increasing dose (inhibition).
# Sequence of F508delCFTR (P13569 with tags, fused parts or gaps DEL508-508): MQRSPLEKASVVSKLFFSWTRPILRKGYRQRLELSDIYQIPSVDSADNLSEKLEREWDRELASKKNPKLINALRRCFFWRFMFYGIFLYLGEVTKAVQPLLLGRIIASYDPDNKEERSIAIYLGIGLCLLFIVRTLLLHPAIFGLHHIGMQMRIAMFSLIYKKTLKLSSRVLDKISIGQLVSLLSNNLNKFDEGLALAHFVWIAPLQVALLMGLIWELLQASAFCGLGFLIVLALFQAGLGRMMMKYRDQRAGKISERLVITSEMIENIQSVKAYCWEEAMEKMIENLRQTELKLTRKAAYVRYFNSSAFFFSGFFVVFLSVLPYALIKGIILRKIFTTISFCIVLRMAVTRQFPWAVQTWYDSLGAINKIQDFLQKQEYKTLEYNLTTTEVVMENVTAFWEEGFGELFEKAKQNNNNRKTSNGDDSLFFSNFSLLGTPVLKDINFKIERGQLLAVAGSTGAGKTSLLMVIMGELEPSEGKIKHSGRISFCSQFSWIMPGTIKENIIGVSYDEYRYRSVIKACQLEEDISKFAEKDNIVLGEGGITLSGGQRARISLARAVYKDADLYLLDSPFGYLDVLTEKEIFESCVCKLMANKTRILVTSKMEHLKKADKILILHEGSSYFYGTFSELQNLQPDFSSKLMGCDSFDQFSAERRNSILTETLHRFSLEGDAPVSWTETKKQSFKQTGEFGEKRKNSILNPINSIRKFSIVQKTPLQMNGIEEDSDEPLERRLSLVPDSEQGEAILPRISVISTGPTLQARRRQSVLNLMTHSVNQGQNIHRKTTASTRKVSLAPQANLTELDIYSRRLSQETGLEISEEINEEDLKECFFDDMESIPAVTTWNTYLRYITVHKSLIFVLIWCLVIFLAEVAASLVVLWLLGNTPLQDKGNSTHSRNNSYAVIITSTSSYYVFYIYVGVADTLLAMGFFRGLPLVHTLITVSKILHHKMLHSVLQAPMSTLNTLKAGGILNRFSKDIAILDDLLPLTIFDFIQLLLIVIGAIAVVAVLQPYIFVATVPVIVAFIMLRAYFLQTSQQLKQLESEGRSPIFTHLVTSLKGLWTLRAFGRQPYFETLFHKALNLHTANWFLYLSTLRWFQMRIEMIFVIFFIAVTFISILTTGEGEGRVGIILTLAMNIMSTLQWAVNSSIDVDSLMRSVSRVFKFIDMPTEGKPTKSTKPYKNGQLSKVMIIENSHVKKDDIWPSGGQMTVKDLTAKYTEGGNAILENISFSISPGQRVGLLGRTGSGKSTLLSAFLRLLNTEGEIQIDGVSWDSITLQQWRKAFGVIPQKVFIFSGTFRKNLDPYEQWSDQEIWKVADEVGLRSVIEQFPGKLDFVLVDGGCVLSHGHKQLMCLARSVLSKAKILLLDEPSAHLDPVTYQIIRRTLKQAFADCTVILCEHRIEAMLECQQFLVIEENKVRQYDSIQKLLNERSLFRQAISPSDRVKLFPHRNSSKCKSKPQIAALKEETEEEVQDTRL
EC50,Emax,Structure (SMILES)
3.05 µM,88%,"COC(=O)c1cccc(C2CC(NC(=O)C3(c4ccc5c(c4)OC(F)(F)O5)CC3)c3ccc(OC)nc3O2)c1 (mixture of isomers) [Example 37, methyl 3-[4-({[1-(2,2-difluoro-1,3-benzodioxol-5-yl)cyclopropyl]carbonyl}amino)-7-methoxy-3,4-dihydro-2H-pyrano[2,3-b]pyridin-2-yl]benzoate]"
1.94 µM,77%,"COc1ccc2c(c1)OC(C1CN(C(=O)OC(C)(C)C)C1)CC2NC(=O)C1(c2ccc3c(c2)OC(F)(F)O3)CC1 (mixture of isomers) [Example 115, tert-butyl 3-[4-({[1-(2,2-difluoro-1,3-benzodioxol-5-yl)cyclopropyl]carbonyl}amino)-7-methoxy-3,4-dihydro-2H-chromen-2-yl]azetidine-1-carboxylate]"
6.01 µM,82%,"COc1ccc2c(c1)OC(C1CN(S(C)(=O)=O)C1)CC2NC(=O)C1(c2ccc3c(c2)OC(F)(F)O3)CC1 (mixture of isomers) [Example 117, 1-(2,2-difluoro-1,3-benzodioxol-5-yl)-N-{7-methoxy-2-[1-(methylsulfonyl)azetidin-3-yl]-3,4-dihydro-2H-chromen-4-yl}cyclopropanecarboxamide]"
1.77 µM,109%,"COc1ccc2c(c1)O[C@@H](c1cccnc1)C[C@@H]2NC(=O)C1(c2ccc3c(c2)OC(F)(F)O3)CC1 (racemic) [Example 22, rac-1-(2,2-difluoro-1,3-benzodioxol-5-yl)-N-[(2R,4S)-7-methoxy-2-(pyridin-3-yl)-3,4-dihydro-2H-chromen-4-yl]cyclopropanecarboxamide]"
5.71 µM,106%,"COc1ccc2c(n1)O[C@@H](c1cccc(C(=O)O)c1)C[C@@H]2NC(=O)C1(c2ccc3c(c2)OC(F)(F)O3)CC1 (racemic) [Example 29, rac-3-[(2R,4S)-4-({[1-(2,2-difluoro-1,3-benzodioxol-5-yl)cyclopropyl]carbonyl}amino)-7-methoxy-3,4-dihydro-2H-pyrano[2,3-b]pyridin-2-yl]benzoic acid]"
1.88 µM,78%,"COC(=O)c1cccc([C@H]2C[C@@H](NC(=O)C3(c4ccc5c(c4)OC(F)(F)O5)CC3)c3ccc(OC)nc3O2)c1 (racemic) [Example 30, methyl rac-3-[(2R,4R)-4-({[1-(2,2-difluoro-1,3-benzodioxol-5-yl)cyclopropyl]carbonyl}amino)-7-methoxy-3,4-dihydro-2H-pyrano[2,3-b]pyridin-2-yl]benzoate]"
10.7 µM,21%,"O=C(O)c1cccc([C@H]2C[C@@H](NC(=O)C3(c4ccc5c(c4)OC(F)(F)O5)CC3)c3cccnc3O2)c1 (racemic) [Example 31, rac-3-[(2R,4R)-4-({[1-(2,2-difluoro-1,3-benzodioxol-5-yl)cyclopropyl]carbonyl}amino)-3,4-dihydro-2H-pyrano[2,3-b]pyridin-2-yl]benzoic acid]"
≥ 20 µM,16%,"O=C(O)c1cccc([C@H]2C[C@H](NC(=O)C3(c4ccc5c(c4)OC(F)(F)O5)CC3)c3cccnc3O2)c1 (racemic) [Example 32, rac-3-[(2R,4S)-4-({[1-(2,2-difluoro-1,3-benzodioxol-5-yl)cyclopropyl]carbonyl}amino)-3,4-dihydro-2H-pyrano[2,3-b]pyridin-2-yl]benzoic acid]"
7.65 µM,38%,"COC(=O)c1cccc([C@H]2C[C@@H](NC(=O)C3(c4ccc5c(c4)OC(F)(F)O5)CC3)c3cccnc3O2)c1 (racemic) [Example 33, rac-methyl 3-[(2R,4R)-4-({[1-(2,2-difluoro-1,3-benzodioxol-5-yl)cyclopropyl]carbonyl}amino)-3,4-dihydro-2H-pyrano[2,3-b]pyridin-2-yl]benzoate]"
